Values after ≈ are worked out from the molar mass of the structure shown.
Key:
C. albicans 90028 = assay: Broth microdilution susceptibility testing (CLSI M27-A3); format: cell-based, Candida albicans; conditions: Candida albicans, 90028, read-out: MIC, C. albicans 90028
Excerpt: (§1) C. neoformans strains H99, DUMC 118.00, and DUMC 158.03 and C. gattii strains R272 and RSA-MW-3515 were obtained from Duke University. C. albicans 90028, A. fumigatus MYA3626, C. neoformans 14116, C. neoformans 76484, and the pathogenic Cryptococcus reference strains panel (ATCC MP-11) were obtained from the American Type Culture Collection (ATCC; Manassas, VA, USA). The ATCC MP-11 panel consists of strains representing eight molecular types and three subtypes of C. neoformans and C. gattii.
(§2) To establish the antimicrobial activity of the APX001A analogs, broth microdilution susceptibility testing was performed according to Clinical and Laboratory Standards Institute (CLSI) guidelines M27-A3 ([47]) for yeasts and M38-A2 for molds ([48]). APX001A and analogs were first diluted in DMSO to obtain intermediate dilutions. These were further diluted in microtiter plates to obtain a final concentration of 2 to 0.002 μg/ml. One microliter of DMSO was added to the no-drug control wells. The solutions were mixed on a plate shaker for 10 min, and the plates were incubated at 35°C for 40 to 48 h (C. albicans, A. fumigatus) and 72 h (C. neoformans). The minimum concentration that led to a 50% reduction in fungal growth compared to that for the control (determined with the aid of a reading mirror) was determined as the MIC for C. albicans and C. neoformans. The minimum concentration that led to the shortening of hyphae compared to the hyphal growth in DMSO control wells was determined as the minimum effective concentration (MEC) for A. fumigatus (as read for the echinocandins). The use of the MIC and MEC endpoints for APX001A (formerly E1210) against yeasts and molds, respectively, has been described previously ([19][–][21]). For the cryptococcal synergy studies, APX001A and APX2020 MIC values were read at 50% inhibition.

A. fumigatus MYA3626 = assay: Broth microdilution susceptibility testing for molds (CLSI M38-A2); format: cell-based; conditions: Aspergillus fumigatus, MYA3626, read-out: MIC or MEC for A. fumigatus MYA3626
Excerpt: as §1, §2

C. neoformans = tested on: C. neoformans; design: method as in PMID 15078612; conditions: U.S. isolates; cited from earlier work

| Compound | MIC (C. albicans 90028) [µg/mL] | MIC (A. fumigatus MYA3626) [µg/mL] | MIC90 (C. neoformans) [µg/mL] |
| --- | --- | --- | --- |
| CC[C@H](C)C[C@H](C)CCCCCCCCC(=O)N[C@H]1C[C@@H](O)[C@@H](NCCN)NC(=O)[C@@H]2[C@@H](O)CCN2C(=O)[C@H]([C@H](O)CCN)NC(=O)[C@H]([C@H](O)[C@@H](O)c2ccc(O)cc2)NC(=O)[C@@H]2C[C@@H](O)CN2C(=O)[C@H]([C@@H](C)O)NC1=O [CAS, caspofungin, reference compound] | 0.5 | 0.25 | – |
| Nc1[nH]c(=O)ncc1F [flucytosine] | – | – | 8 (≈ 62 µM) |
| CCC(C)n1ncn(-c2ccc(N3CCN(c4ccc(OCC5COC(Cn6cncn6)(c6ccc(Cl)cc6Cl)O5)cc4)CC3)cc2)c1=O (centres unmarked) [itraconazole] | – | – | 0.125 (≈ 0.177 µM) |
| CC(=O)N1CCN(c2ccc(OCC3COC(Cn4ccnc4)(c4ccc(Cl)cc4Cl)O3)cc2)CC1 (centres unmarked) [ketoconazole] | – | – | 0.06 (≈ 0.113 µM) |

Source: publication PMC6105804, “In Vitro and In Vivo Evaluation of APX001A/APX001 and Other Gwt1 Inhibitors against Cryptococcus” (Antimicrobial Agents and Chemotherapy, 2018)
